Drawing on PubChem BioAssay (NCI), this text covers GI50 and TGI for seven molecules.

Among the test systems are BT-549 breast; COLO 205 colon; UACC-257 melanoma; HCT-15 colon; NCI-H226 lung; CAKI-1 renal; SR leukemia; NCI-H23 lung; M14 melanoma; OVCAR-8 ovarian.
Assay in all cases: DTP human tumour cell line panel, 48 h

“And” between values parts separate entries of the source, which are not always exact repeats. Equal entries are not always repeated.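 Method: 48-hour compound exposure of cells in 96-well plates, five concentrations, linear interpolation of endpoints. GI50: concentration for 50% inhibition of growth. Definition used: TGI = concentration required for complete inhibition of growth.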

For `CCCN(CCS(C)(=O)=O)Cc1ccc(-c2ccc3ncnc(Nc4ccc(OCc5cccc(F)c5)c(Cl)c4)c3c2)o1`, the GI50 (as a rule, the concentration at which growth is held to half of that of the control) was over 25 µM in the assay with BT-549 breast; over 25 µM in the assay on COLO 205 colon; over 25 µM in the assay with UACC-257 melanoma; over 25 µM in the assay on HCT-15 colon; over 25 µM in the assay with NCI-H226 lung; 0.997 µM with CAKI-1 renal. The GI50 in the assay on SR leukemia is over 20.9 µM; in the assay on NCI-H23 lung it was over 25 µM; in the assay with M14 melanoma, over 25 µM; in the assay on OVCAR-8 ovarian it was over 25 µM. The TGI in the assay on BT-549 breast, in the assay with COLO 205 colon, in the assay with UACC-257 melanoma, in the assay with HCT-15 colon, in the assay with NCI-H226 lung and with CAKI-1 renal was over 25 µM throughout. In addition, the TGI in the assay on SR leukemia, in the assay on NCI-H23 lung, in the assay with M14 melanoma and in the assay on OVCAR-8 ovarian was over 25 µM throughout.

Take `FC(F)(F)c1ccc(-c2cnc(-c3ncon3)nc2NC2CCCCCC2)cc1`: the GI50 in the assay on BT-549 breast is 38.5 µM; with COLO 205 colon, 27.7 µM; with UACC-257 melanoma, 53.2 µM; in the assay on HCT-15 colon it was 34.3 µM; in the assay on NCI-H226 lung, 43.1 µM; in the assay with CAKI-1 renal, 67.9 µM. Further, the GI50 in the assay with SR leukemia is 20.4 µM; in the assay with NCI-H23 lung it was 37 µM; in the assay on M14 melanoma it was 56.3 µM; in the assay on OVCAR-8 ovarian it was 32.2 µM. Also, the TGI (commonly the concentration at which net growth stops) with BT-549 breast was over 100 µM; with COLO 205 colon it was 84.8 µM; in the assay with UACC-257 melanoma, over 100 µM; in the assay with HCT-15 colon it was over 100 µM; in the assay with NCI-H226 lung it was over 100 µM; with CAKI-1 renal, over 100 µM. Also, the TGI in the assay on SR leukemia was 56.8 µM; in the assay on NCI-H23 lung, over 100 µM; in the assay on M14 melanoma, over 100 µM; in the assay with OVCAR-8 ovarian, over 100 µM.

As for `N#Cc1c(N2CCOCC2)nc(=S)[nH]c1-c1ccco1`, the GI50 in the assay on BT-549 breast was 3.15 µM; in the assay with COLO 205 colon, 5.7 µM; in the assay with UACC-257 melanoma, 22.4 µM; in the assay on HCT-15 colon, 6.2 µM; in the assay on NCI-H226 lung, 3.94 µM; in the assay with CAKI-1 renal it was 3.77 µM. The GI50 in the assay on SR leukemia is 2.8 µM; in the assay with NCI-H23 lung, 12.1 µM; with M14 melanoma, 12.2 µM; with OVCAR-8 ovarian, 18.3 µM. Besides, the TGI in the assay with BT-549 breast was 18.1 µM; with COLO 205 colon, 70.3 µM; with UACC-257 melanoma it was over 100 µM; in the assay with HCT-15 colon it was over 100 µM; in the assay on NCI-H226 lung it was 63.5 µM; in the assay with CAKI-1 renal, 62.4 µM. For the same molecule, the TGI was 51.7 µM in the assay on SR leukemia, over 100 µM in the assay with NCI-H23 lung, over 100 µM with M14 melanoma and over 100 µM in the assay on OVCAR-8 ovarian.

Turning to `NC(=O)c1csc(C2OC(CO)C(O)C2O)n1` (stereo not drawn), the GI50 was over 60.7 µM in the assay on BT-549 breast; 4.76 µM in the assay with COLO 205 colon; 4.97 µM in the assay with HCT-15 colon; 99.2 µM with NCI-H226 lung; 65.8 µM and > 50.1 µM with CAKI-1 renal; 103 µM in the assay with SR leukemia. The GI50 is 52.3 µM in the assay on NCI-H23 lung, 10.2 µM with M14 melanoma and 31.1 µM in the assay on OVCAR-8 ovarian. Also, the TGI in the assay with BT-549 breast is over 10000 µM; in the assay on COLO 205 colon, > 31.6 µM and 6210 µM; with UACC-257 melanoma, over 10000 µM; in the assay with HCT-15 colon, 1440 µM; in the assay on NCI-H226 lung, over 9450 µM; in the assay with CAKI-1 renal it was 1220 µM. In addition, the TGI in the assay with SR leukemia is over 6090 µM; in the assay on NCI-H23 lung it was 5250 µM; with M14 melanoma it was 5650 µM; with OVCAR-8 ovarian, 1570 µM.

On to `O=C(O)CN1CCN(CC(=O)O)CC(=O)[O][Hg][O]C(=O)C1`, for which the GI50 with BT-549 breast was 19.5 µM; in the assay with COLO 205 colon it was 17.8 µM; in the assay with UACC-257 melanoma, 15.4 µM; in the assay on HCT-15 colon it was 21.1 µM; in the assay on NCI-H226 lung, over 100 µM; in the assay on CAKI-1 renal it was 21.5 µM. The GI50 in the assay on SR leukemia was 14.8 µM; with NCI-H23 lung, 21.2 µM; in the assay with M14 melanoma it was 16.4 µM; with OVCAR-8 ovarian, 22.4 µM. Also, the TGI in the assay with BT-549 breast was 34.8 µM; in the assay with COLO 205 colon it was 32.5 µM; with UACC-257 melanoma, 28.7 µM; in the assay on HCT-15 colon, 46.5 µM; in the assay on NCI-H226 lung, over 100 µM; in the assay with CAKI-1 renal, 36.4 µM. Further, the TGI in the assay with SR leukemia is 38.6 µM; with NCI-H23 lung, 47.2 µM; in the assay on M14 melanoma, 31 µM; in the assay with OVCAR-8 ovarian it was 49.4 µM.

For `Nc1nc(OCc2ccccc2)c2[nH]cnc2n1`, the GI50 was 24.3 µM and 22.1 µM with BT-549 breast; 57 µM and 36.1 µM with COLO 205 colon; 39.8 µM and 157 µM with UACC-257 melanoma; 25.5 µM and 21.7 µM in the assay on HCT-15 colon; 36.8 µM and 16.3 µM with NCI-H226 lung; 13.2 µM and 13.4 µM in the assay with CAKI-1 renal. For the same molecule, the GI50 with SR leukemia was 36.6 µM; in the assay on NCI-H23 lung, 31.6 µM and 46.9 µM; with M14 melanoma it was 25.6 µM and 26.5 µM; in the assay with OVCAR-8 ovarian, 64.8 µM and 63 µM. The total growth inhibition concentration (TGI) in the assay on BT-549 breast is 115 µM; in the assay on COLO 205 colon, 288 µM and 151 µM; in the assay with UACC-257 melanoma, 400 µM and 736 µM; in the assay on HCT-15 colon, 400 µM and 222 µM; in the assay on NCI-H226 lung, 119 µM and 82 µM; in the assay on CAKI-1 renal, 44.2 µM and 72.4 µM and 43.5 µM. Besides, the TGI in the assay on NCI-H23 lung is 326 µM and 229 µM; in the assay with M14 melanoma it was 204 µM and 116 µM; with OVCAR-8 ovarian, 400 µM and 492 µM.

Turning to `CC1=C2[C@@H](CC1)[C@]1(C)O[C@@](c3ccccc3)(C[C@H]1OC(=O)CO)[C@H]2OC(=O)/C=C/c1ccccc1`, the GI50 is 0.487 µM in the assay with BT-549 breast; 16 µM in the assay with COLO 205 colon; 22.6 µM in the assay on UACC-257 melanoma; 13.3 µM with HCT-15 colon; 16.6 µM in the assay with NCI-H226 lung; 12.5 µM with CAKI-1 renal. Also, the GI50 with SR leukemia was 12 µM; in the assay on NCI-H23 lung, 17.1 µM; in the assay on M14 melanoma it was 15.8 µM; with OVCAR-8 ovarian, 0.354 µM. In addition, the TGI in the assay with BT-549 breast was 15.8 µM; in the assay with COLO 205 colon it was 33.6 µM; with UACC-257 melanoma it was 49.9 µM; with HCT-15 colon it was 35.6 µM; with NCI-H226 lung, 37.2 µM; with CAKI-1 renal it was 41.4 µM. Moreover, the total growth inhibition concentration (TGI) with SR leukemia was 44.8 µM; in the assay on NCI-H23 lung, 44.9 µM; with M14 melanoma, 39.1 µM; with OVCAR-8 ovarian, 19.9 µM.
